Data from ChEMBL document CHEMBL5729675, “Sulfonamide compound or salt thereof” (2023).
pIC50: −log10 of the molar value.

Target: Ribonucleotide reductase (Homo sapiens, UniProt P23921+Q7LG56)
Experiment: Human RNR Inhibition Effect: The inhibitory activity against the ribonucleotide reduction reaction (hereinafter referred to as RNR reaction) of the test compound was determined by measuring the formation of deoxycytidine diphosphate (hereinafter referred to as dCDP) from cytidine diphosphate (hereinafter referred to as CDP) by the following method.Human M1 subunit and human M2 subunit (mutant …

Sequence of Ribonucleotide reductase (P23921 whole entry, looked up): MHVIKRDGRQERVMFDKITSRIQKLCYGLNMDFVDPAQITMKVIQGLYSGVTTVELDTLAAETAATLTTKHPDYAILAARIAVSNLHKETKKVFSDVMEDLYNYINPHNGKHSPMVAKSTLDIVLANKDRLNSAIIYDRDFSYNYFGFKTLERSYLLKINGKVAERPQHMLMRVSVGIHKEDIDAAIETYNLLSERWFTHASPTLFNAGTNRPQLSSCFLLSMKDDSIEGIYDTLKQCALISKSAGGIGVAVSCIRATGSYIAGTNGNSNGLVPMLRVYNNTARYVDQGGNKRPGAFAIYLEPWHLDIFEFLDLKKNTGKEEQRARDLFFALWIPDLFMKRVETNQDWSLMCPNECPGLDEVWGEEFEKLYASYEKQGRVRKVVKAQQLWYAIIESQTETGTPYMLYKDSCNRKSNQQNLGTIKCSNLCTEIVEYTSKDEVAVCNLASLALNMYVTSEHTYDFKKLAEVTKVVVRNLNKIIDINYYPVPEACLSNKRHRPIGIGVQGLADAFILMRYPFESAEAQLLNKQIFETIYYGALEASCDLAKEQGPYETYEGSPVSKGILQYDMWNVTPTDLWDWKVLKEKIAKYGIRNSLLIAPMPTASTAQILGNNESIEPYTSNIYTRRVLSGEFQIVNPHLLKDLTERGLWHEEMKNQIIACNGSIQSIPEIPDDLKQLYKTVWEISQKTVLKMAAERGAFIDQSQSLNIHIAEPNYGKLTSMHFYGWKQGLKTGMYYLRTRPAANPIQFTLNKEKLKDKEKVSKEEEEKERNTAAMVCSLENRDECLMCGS
Sequence of Ribonucleotide reductase (Q7LG56 whole entry, looked up): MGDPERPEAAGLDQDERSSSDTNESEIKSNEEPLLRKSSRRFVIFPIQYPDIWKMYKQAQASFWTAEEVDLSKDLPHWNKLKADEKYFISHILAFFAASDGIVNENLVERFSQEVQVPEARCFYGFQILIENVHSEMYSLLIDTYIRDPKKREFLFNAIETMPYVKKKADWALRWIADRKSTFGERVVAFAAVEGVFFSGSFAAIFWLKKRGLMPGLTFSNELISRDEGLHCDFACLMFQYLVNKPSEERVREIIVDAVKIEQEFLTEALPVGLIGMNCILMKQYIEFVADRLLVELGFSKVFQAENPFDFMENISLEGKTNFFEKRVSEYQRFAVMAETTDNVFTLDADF

- pIC50: 6.34
SMILES: COc1cc(Cl)ccc1S(=O)(=O)N[C@H](c1n[nH]c(=S)[nH]1)[C@H](C)c1c(F)ccc(C)c1C
